Reference: ChEMBL document CHEMBL5620430, “Design, synthesis and biological evaluation of indazole derivatives as selective covalent inhibitors of FGFR4 in wild-type and gatekeeper mutants” (Eur J Med Chem, 2023)
Activity calls are given as the source filed them. The rule behind the calls is not given here.

Key:
[1] = tested on: Huh-7; assay: cells; conditions: Homo sapiens
Description: Antiproliferative activity against human Huh-7 cells measured after 24 to 48 hrs by MTT assay

[2] = Toxicity in NSG mouse assessed as effect on UREA level at 20 to 40 mg/kg […]; format: organism-based; conditions: in vivo, dose 20-40 mg/kg
[3] = Toxicity in NSG mouse assessed as effect on HDL-C level at 20 to 40 mg/kg […]; format: organism-based; conditions: in vivo, dose 20-40 mg/kg
[4] = tested on: Huh-7; assay: Antitumor activity against human Huh-7 cells xenografted in NSG mouse assessed as suppression of tumor growth at 40 mg/kg, ip administered twice per day for 2 weeks relative to control; format: functional
[5] = tested on: Hep 3B2; assay: Antiproliferative activity against human Hep3B cells measured after 24 to 48 hrs by MTT assay; format: functional, cell-based
[6] = Toxicity in NSG mouse assessed as lethality at 20 to 40 mg/kg […]; format: organism-based; conditions: in vivo, dose 20-40 mg/kg
[7] = Metabolic stability in liver microsomes (unknown origin) assessed as half life; format: ADME, Microsome
[8] = tested on: Huh-7; assay: Induction of cell cycle arrest in human Huh-7 cells assessed as accumulation of cells at G0/G1 phase at 1 to 2 uM measured after 48 hrs by propidium iodide staining based flow cytometry analysis; format: functional; conditions: dose 1-2 µM
[9] = Toxicity in NSG mouse assessed as effect on AST level at 20 to 40 mg/kg […]; format: organism-based; conditions: in vivo, dose 20-40 mg/kg
[10] = Toxicity in NSG mouse assessed as effect on kidney at 20 to 40 mg/kg by H and E staining based analysis; format: organism-based; conditions: in vivo, dose 20-40 mg/kg
[11] = Tmax in Sprague-Dawley rat at 2 mg/kg, iv by LC-MS/MS analysis; format: ADME, organism-based; conditions: in vivo
[12] = tested on: Huh-7; assay: Antitumor activity against human Huh-7 cells xenografted in ip dosed NSG mouse assessed as decrease in tumor weight administered twice per day for 2 weeks; format: functional, organism-based; conditions: dose 20-40 mg/kg
[13] = Half life in Sprague-Dawley rat at 2 mg/kg, iv by LC-MS/MS analysis; format: ADME, organism-based; conditions: in vivo
[14] = Half life in Sprague-Dawley rat at 10 mg/kg, po by LC-MS/MS analysis; format: ADME, organism-based; conditions: in vivo
[15] = target: Fibroblast growth factor receptor 3 (Homo sapiens, UniProt P22607)
Description: Inhibition of FGFR3 (unknown origin)

[16] = target: T1, Fibroblast growth factor receptor 4 (Homo sapiens, UniProt P22455)
Target sequence in this assay (P22455 whole entry): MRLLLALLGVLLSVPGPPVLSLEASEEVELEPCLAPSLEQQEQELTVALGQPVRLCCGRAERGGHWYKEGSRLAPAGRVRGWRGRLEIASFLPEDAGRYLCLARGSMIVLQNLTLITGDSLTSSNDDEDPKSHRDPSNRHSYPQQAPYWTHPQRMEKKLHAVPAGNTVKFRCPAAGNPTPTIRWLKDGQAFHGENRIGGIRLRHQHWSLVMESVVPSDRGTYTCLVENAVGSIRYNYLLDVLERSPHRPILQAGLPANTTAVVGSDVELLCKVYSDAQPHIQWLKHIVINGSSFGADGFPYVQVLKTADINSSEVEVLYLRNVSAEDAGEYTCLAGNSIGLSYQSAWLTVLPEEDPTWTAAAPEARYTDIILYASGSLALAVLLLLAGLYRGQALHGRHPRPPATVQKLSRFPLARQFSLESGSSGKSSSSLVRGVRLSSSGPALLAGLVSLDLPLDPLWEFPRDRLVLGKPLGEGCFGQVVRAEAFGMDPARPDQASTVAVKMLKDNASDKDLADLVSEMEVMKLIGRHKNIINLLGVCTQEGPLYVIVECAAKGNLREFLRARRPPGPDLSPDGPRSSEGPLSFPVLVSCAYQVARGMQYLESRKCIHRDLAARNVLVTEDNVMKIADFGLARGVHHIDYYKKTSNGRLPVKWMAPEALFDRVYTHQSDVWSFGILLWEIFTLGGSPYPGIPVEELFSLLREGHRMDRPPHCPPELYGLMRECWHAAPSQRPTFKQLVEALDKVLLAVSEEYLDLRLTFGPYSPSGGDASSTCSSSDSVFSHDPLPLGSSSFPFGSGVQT
Description: Inhibition of FGFR4 (445 to 753 residues) (unknown origin) expressed in Escherichia coli

[17] = AUC (0 to t) in Sprague-Dawley rat at 2 mg/kg, iv by LC-MS/MS analysis; format: ADME, organism-based; conditions: in vivo
[18] = target: T1, Fibroblast growth factor receptor 4; assay: Inhibition of FGFR4 in human Huh-7 cells assessed as inhibition of MEK phosphorylation incubated for 2 hrs followed by compound washout and measured upto 8 hrs by Western blot analysis; format: cell-based
Target sequence in this assay (P22455 22-802 limits assumed): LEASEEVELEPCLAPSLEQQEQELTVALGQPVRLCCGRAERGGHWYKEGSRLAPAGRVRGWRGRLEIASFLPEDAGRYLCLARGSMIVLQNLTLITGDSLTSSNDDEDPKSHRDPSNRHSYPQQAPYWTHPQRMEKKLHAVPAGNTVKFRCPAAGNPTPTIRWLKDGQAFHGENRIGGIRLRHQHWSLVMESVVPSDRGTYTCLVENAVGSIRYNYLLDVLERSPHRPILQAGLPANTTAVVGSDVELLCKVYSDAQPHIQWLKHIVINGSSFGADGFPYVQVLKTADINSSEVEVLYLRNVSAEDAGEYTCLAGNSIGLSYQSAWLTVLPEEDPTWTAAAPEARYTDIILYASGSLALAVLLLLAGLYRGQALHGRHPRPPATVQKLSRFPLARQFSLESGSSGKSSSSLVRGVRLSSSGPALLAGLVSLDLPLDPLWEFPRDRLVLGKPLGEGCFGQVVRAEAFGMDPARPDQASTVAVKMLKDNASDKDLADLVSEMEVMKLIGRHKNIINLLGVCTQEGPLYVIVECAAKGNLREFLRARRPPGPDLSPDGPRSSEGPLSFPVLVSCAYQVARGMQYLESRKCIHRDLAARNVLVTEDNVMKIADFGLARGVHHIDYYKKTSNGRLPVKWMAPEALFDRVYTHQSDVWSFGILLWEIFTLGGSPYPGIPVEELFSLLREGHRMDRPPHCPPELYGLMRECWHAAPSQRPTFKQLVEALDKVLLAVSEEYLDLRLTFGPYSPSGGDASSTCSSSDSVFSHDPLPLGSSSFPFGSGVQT

[19] = target: T1, Fibroblast growth factor receptor 4; assay: Inhibition of FGFR4 in human Huh-7 cells assessed as inhibition of ERK1/2 phosphorylation at 0.5 uM by Western blot analysis; format: cell-based; conditions: time <= 24.0 hrs, TDE = time-dependent effect
Target sequence in this assay (P22455 22-802 limits assumed): as above

[20] = target: T1, Fibroblast growth factor receptor 4; assay: Inhibition of FGFR4 phosphorylation in human Huh-7 cells at 120 nM by Western blot analysis; format: cell-based
Target sequence in this assay (P22455 22-802 limits assumed): as above

[21] = tested on: Huh-7; assay: Antitumor activity against human Huh-7 cells xenografted in ip dosed NSG mouse assessed as suppression of tumor growth administered twice per day for 2 weeks; format: functional, organism-based; conditions: dose 20-40 mg/kg
[22] = tested on: BaF3; assay: cells; conditions: Mus musculus
Description: Antiproliferative activity against mouse BaF3 cells harbouring ETV6-FGFR4-N535K mutant measured after 24 to 48 hrs by MTT assay

[23] = MRT (0 to t) in Sprague-Dawley rat at 10 mg/kg, po by LC-MS/MS analysis; format: ADME, organism-based; conditions: in vivo
[24] = target: T1, Fibroblast growth factor receptor 4; assay: Inhibition of FGFR4 in human Huh-7 cells assessed as inhibition of MEK phosphorylation at 0.5 uM by Western blot analysis; format: cell-based; conditions: time <= 24.0 hrs, TDE = time-dependent effect
Target sequence in this assay (P22455 22-802 limits assumed): as above

[25] = target: T1, Fibroblast growth factor receptor 4; assay: Inhibition of FGFR4 in human Huh-7 cells assessed as inhibition of ERK1/2 phosphorylation measured after 2 hrs by Western blot analysis; format: cell-based
Target sequence in this assay (P22455 22-802 limits assumed): as above

[26] = target: Fibroblast growth factor receptor 2 (Homo sapiens, UniProt P21802)
Description: Inhibition of FGFR2 (unknown origin)

[27] = tested on: HepG2; assay: Antiproliferative activity against human HepG2 cells measured after 24 to 48 hrs by MTT assay; format: functional, cell-based
[28] = target: T1, Fibroblast growth factor receptor 4; assay: Inhibition of FGFR4 in human Huh-7 cells assessed as inhibition of ERK1/2 phosphorylation incubated for 2 hrs followed by compound washout and measured upto 8 hrs by Western blot analysis; format: cell-based
Target sequence in this assay (P22455 22-802 limits assumed): as above

[29] = AUC (0 to t) in Sprague-Dawley rat at 10 mg/kg, po by LC-MS/MS analysis; format: ADME, organism-based; conditions: in vivo
[30] = Toxicity in NSG mouse assessed as effect on body weight at 20 to 40 mg/kg […]; format: organism-based; conditions: in vivo, dose 20-40 mg/kg
[31] = tested on: BaF3; assay: cells; conditions: Mus musculus; remark: listed apart in the source
Description: Antiproliferative activity against mouse BaF3 cells harbouring ETV6-FGFR4-V550L mutant measured after 24 to 48 hrs by MTT assay

[32] = Oral bioavailability in Sprague-Dawley rat at 10 mg/kg by LC-MS/MS analysis; format: ADME, organism-based; conditions: in vivo
[33] = tested on: Huh-7; assay: Antitumor activity against human Huh-7 cells xenografted in ip dosed NSG mouse assessed as decrease in Ki-67 expression administered twice per day for 2 weeks; format: functional, organism-based; conditions: dose 20-40 mg/kg
[34] = Tmax in Sprague-Dawley rat at 10 mg/kg, po by LC-MS/MS analysis; format: ADME, organism-based; conditions: in vivo
[35] = Toxicity in NSG mouse assessed as effect on CK level at 20 to 40 mg/kg […]; format: organism-based; conditions: in vivo, dose 20-40 mg/kg
[36] = Toxicity in NSG mouse assessed as effect on UA level at 20 to 40 mg/kg […]; format: organism-based; conditions: in vivo, dose 20-40 mg/kg
[37] = Antiproliferative activity against human L02 cells measured after 24 to 48 hrs by MTT assay; format: toxicity, cell-based
[38] = Toxicity in NSG mouse assessed as effect on liver at 20 to 40 mg/kg by H and E staining based analysis; format: organism-based; conditions: in vivo, dose 20-40 mg/kg
[39] = Toxicity in NSG mouse assessed as effect on CHO level at 20 to 40 mg/kg […]; format: organism-based; conditions: in vivo, dose 20-40 mg/kg
[40] = target: T1, Fibroblast growth factor receptor 4; assay: Inhibition of FGFR4 in human Huh-7 cells assessed as inhibition of MEK phosphorylation measured after 2 hrs by Western blot analysis; format: cell-based
[41] = Toxicity in NSG mouse assessed as effect on ALT level at 20 to 40 mg/kg […]; format: organism-based; conditions: in vivo, dose 20-40 mg/kg
[42] = Toxicity in NSG mouse assessed as effect on lung at 20 to 40 mg/kg by H and E staining based analysis; format: organism-based; conditions: in vivo, dose 20-40 mg/kg
[43] = Cmax in Sprague-Dawley rat at 2 mg/kg, iv by LC-MS/MS analysis; format: ADME, organism-based; conditions: in vivo
[44] = Toxicity in NSG mouse assessed as effect on LDL-C level at 20 to 40 mg/kg […]; format: organism-based; conditions: in vivo, dose 20-40 mg/kg
[45] = Toxicity in NSG mouse assessed as effect on TP level at 20 to 40 mg/kg […]; format: organism-based; conditions: in vivo, dose 20-40 mg/kg
[46] = tested on: Huh-7; assay: Induction of apoptosis in human Huh-7 cells assessed as late apoptotic cells at 1 uM measured after 48 hrs by AnnexinV-FITC/PI staining based flow cytometry (reference value: 2.55%); format: functional

Sequence of Fibroblast growth factor receptor 2 (P21802 whole entry): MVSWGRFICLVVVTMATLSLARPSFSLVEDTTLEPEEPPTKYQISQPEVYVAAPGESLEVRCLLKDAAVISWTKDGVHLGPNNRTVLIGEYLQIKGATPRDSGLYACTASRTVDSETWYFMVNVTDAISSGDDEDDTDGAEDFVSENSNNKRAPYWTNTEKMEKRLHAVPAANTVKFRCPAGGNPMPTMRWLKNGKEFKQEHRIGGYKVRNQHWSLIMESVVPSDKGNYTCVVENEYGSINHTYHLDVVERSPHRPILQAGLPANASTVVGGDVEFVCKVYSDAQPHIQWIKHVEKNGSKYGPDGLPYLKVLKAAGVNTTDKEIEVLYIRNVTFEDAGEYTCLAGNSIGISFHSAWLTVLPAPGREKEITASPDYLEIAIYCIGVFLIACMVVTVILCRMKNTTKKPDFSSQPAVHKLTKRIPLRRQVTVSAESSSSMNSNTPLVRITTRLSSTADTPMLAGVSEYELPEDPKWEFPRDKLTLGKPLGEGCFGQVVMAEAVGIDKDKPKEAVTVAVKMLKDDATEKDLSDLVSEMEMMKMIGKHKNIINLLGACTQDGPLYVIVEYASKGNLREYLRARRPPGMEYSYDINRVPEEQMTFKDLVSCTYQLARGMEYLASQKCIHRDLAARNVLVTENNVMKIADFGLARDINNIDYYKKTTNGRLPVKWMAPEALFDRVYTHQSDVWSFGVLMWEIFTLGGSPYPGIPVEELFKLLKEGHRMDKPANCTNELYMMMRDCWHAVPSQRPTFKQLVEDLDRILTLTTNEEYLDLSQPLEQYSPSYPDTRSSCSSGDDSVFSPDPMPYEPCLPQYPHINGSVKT
Sequence of Fibroblast growth factor receptor 3 (P22607 whole entry): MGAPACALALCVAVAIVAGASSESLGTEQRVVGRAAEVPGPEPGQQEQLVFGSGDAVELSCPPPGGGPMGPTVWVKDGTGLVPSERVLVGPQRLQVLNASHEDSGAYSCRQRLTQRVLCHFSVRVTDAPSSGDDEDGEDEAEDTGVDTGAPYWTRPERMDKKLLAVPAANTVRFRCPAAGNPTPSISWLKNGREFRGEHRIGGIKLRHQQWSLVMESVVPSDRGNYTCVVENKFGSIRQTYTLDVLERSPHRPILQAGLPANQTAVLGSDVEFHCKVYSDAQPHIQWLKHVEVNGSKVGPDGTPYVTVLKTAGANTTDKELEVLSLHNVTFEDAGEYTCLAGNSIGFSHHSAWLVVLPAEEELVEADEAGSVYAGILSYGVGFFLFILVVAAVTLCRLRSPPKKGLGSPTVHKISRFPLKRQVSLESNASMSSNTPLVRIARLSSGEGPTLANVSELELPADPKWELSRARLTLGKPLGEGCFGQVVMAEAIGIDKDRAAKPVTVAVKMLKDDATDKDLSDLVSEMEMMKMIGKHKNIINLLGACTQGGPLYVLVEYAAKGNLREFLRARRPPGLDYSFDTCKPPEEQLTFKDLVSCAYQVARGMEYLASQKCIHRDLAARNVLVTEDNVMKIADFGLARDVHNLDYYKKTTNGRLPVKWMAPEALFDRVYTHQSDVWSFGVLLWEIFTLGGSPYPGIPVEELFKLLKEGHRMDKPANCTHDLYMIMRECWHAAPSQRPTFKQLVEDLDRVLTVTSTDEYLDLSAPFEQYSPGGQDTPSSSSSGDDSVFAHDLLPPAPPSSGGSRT

C=CC(=O)Nc1cc2c(cc1-c1n[nH]c3ccc(O[C@H](C)c4c(Cl)cncc4Cl)cc13)CCN(C)C2
IC50 [1]: 21 nM
Activity [2]: Non-Toxic
Activity [3]: Non-Toxic
Activity [4]: 83%
IC50 [5]: 38 nM
Activity [6]: Non-Toxic
half-life [7]: 8.99 min
Activity [8]: Active
Activity [9]: Non-Toxic
Activity [10]: Non-Toxic
Tmax [11]: 4.8 min
Activity [12]: Dose-Dependent Effect
half-life [13]: 420 min
half-life [14]: 155 min
IC50 [15]: > 3 mM
IC50 [16]: 2.4 nM
AUC(0-t) [17]: 192 ng·h/mL
inhibition [18]: Active
inhibition [19]: Tde
inhibition [20]: Active
Activity [21]: Dose-Dependent Effect
IC50 [22]: 172 nM
MRT last [23]: 3.04 h
inhibition [24]: Tde
inhibition [25]: Dose-Dependent Effect
IC50 [26]: > 3 mM
IC50 [27]: > 5 µM
inhibition [28]: Active
AUC(0-t) [29]: 13 ng·h/mL
Activity [30]: Non-Toxic
IC50 [31]: 2 nM
bioavailability [32]: 1.36%
Activity [33]: Dose-Dependent Effect
Tmax [34]: 1.67 h
Activity [35]: Non-Toxic
Activity [36]: Non-Toxic
IC50 [37]: > 10 µM
Activity [38]: Non-Toxic
Activity [39]: Non-Toxic
inhibition [40]: Dose-Dependent Effect
Activity [41]: Non-Toxic
Activity [42]: Non-Toxic
Cmax [43]: 214 ng/mL
Activity [44]: Non-Toxic
Activity [45]: Non-Toxic
Activity [46]: 7.46%
